This is an account of results in patent US20260347347A1, “2-AZA-AND 2-OXABICYCLO[2.1.1]HEXANE DERIVATIVES AS FACTOR XIIA ENZYME INHIBITORS” (KALVISTA PHARMACEUTICALS LIMITED, priority 2022, published 2026).

The target of this test is T1, Human Factor XIIa (Homo sapiens, UniProt P00748).
T1 construct: purchased Enzyme Research Laboratories
T1 sequence (P00748 373-615 limits assumed): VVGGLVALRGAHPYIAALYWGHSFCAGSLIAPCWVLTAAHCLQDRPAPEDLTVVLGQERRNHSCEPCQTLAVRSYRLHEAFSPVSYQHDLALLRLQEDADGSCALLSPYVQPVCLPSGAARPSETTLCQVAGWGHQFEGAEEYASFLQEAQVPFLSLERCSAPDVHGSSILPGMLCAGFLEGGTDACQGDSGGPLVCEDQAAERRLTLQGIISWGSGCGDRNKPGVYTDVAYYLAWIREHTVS
T1 sequence (P00748 20-372 partner limits assumed): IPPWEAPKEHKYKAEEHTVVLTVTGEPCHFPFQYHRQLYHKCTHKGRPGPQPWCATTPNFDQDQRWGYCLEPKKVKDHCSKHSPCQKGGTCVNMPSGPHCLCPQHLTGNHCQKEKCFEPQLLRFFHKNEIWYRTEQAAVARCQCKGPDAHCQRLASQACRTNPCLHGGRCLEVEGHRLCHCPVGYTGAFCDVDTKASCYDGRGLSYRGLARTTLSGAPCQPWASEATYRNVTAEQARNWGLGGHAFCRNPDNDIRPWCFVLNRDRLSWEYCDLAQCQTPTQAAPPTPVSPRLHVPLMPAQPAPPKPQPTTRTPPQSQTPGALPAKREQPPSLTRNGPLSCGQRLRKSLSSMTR
The test is described as follows: Determination of FXIIa inhibition (in vitro IC50 assay, fluorogenic substrate H-DPro-Phe-Arg-AFC). It is filed as biochemical. Conditions: human Factor XIIa; fluorogenic substrate H-DPro-Phe-Arg-AFC at Km concentration; 5 min, 25 °C; class symbols; read-out: Human FXIIa IC50. The gist of the method: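 Human FXIIa incubated at 25 °C with compound and H-DPro-Phe-Arg-AFC at its Km concentration. Linear fluorescence increase monitored over 5 min, expressed as % of uninhibited activity; IC50 is concentration giving 50% inhibition.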

`CO[C@H]1CC[C@@H](CC(=O)N2CC3(COc4cc(C)n(C)c(=O)c4)CC2(CNc2cccc4c(N)nccc24)C3)CC1` (single isomer, unassigned) [Example 25, 4-((1-(((1-aminoisoquinolin-5-yl)amino)methyl)-2-(2-((1s,4s)-4-methoxycyclohexyl)acetyl)-2-azabicyclo[2.1.1]hexan-4-yl)methoxy)-1,6-dimethylpyridin-2(1H)-one]: the IC50 was in the range of 10 to 100 nM.
In the case of `Cn1ccc(CCC(=O)N2CC3(COc4ccn(C)c(=O)c4)CC2(CNc2cccc4c(N)nccc24)C3)cc1=O` [Example 19, 4-((1-(((1-aminoisoquinolin-5-yl)amino)methyl)-2-(3-(1-methyl-2-oxo-1,2-dihydropyridin-4-yl)propanoyl)-2-azabicyclo[2.1.1]hexan-4-yl)methoxy)-1-methylpyridin-2(1H)-one], the IC50 was 10 to 100 nM.
On to `Cc1cc(OCC23CN(C(=O)N4CC[C@H](c5ccccc5)C4)C(CNc4cccc5c(N)nccc45)(C2)C3)cc(=O)n1C` [Example 49, (R)-4-((1-(((1-aminoisoquinolin-5-yl)amino)methyl)-2-(3-phenylpyrrolidine-1-carbonyl)-2-azabicyclo[2.1.1]hexan-4-yl)methoxy)-1,6-dimethylpyridin-2(1H)-one], for which the IC50 lay in the range of 10 to 100 nM.
As to `Nc1nccc2c(NCC34CC(CN5C(=O)CC[C@H]5c5ccccc5)(CO3)C4)cccc12` [Example 2, (S)-1-((1-(((1-aminoisoquinolin-5-yl)amino)methyl)-2-oxabicyclo[2.1.1]hexan-4-yl)methyl)-5-phenylpyrrolidin-2-one], the IC50 was in the range of 3000 to 10000 nM.
The same measure for `Cn1ccc(OCC23CN(C(=O)C(C)(C)Cc4ccccc4)C(CNc4cccc5c(N)nccc45)(C2)C3)cc1=O` [Example 7, 4-((1-(((1-aminoisoquinolin-5-yl)amino)methyl)-2-(2,2-dimethyl-3-phenylpropanoyl)-2-azabicyclo[2.1.1]hexan-4-yl)methoxy)-1-methylpyridin-2(1H)-one]: 100 to 300 nM.
For the compound `Cn1ccc(OCC23CN(C(=O)N4CCOCC4)C(CNc4cccc5c(N)nccc45)(C2)C3)cc1=O` [Example 31, 4-((1-(((1-aminoisoquinolin-5-yl)amino)methyl)-2-(morpholine-4-carbonyl)-2-azabicyclo[2.1.1]hexan-4-yl)methoxy)-1-methylpyridin-2(1H)-one], the IC50 lay in the range of 10 to 100 nM.
Regarding `Cc1cc(OCC23CN(C(=O)N4CC5(CCOCC5)C4)C(CNc4cccc5c(N)nccc45)(C2)C3)cc(=O)n1C` [Example 46, 4-((1-(((1-aminoisoquinolin-5-yl)amino)methyl)-2-(7-oxa-2-azaspiro[3.5]nonane-2-carbonyl)-2-azabicyclo[2.1.1]hexan-4-yl)methoxy)-1,6-dimethylpyridin-2(1H)-one], the IC50 was in the range of 10 to 100 nM.
Next, `Cc1cc(OCC23CN(C(=O)N4CCCC5(C4)CC5(F)F)C(CNc4cccc5c(N)nccc45)(C2)C3)cc(=O)n1C` (stereo not shown) [Example 87, 4-((1-(((1-aminoisoquinolin-5-yl)amino)methyl)-2-(1,1-difluoro-5-azaspiro[2.5]octane-5-carbonyl)-2-azabicyclo[2.1.1]hexan-4-yl)methoxy)-1,6-dimethylpyridin-2(1H)-one]: 10 to 100 nM.
Next, `C[C@@H](C(=O)N1CC2(COc3ccn(C)c(=O)c3)CC1(CNc1cccc3c(N)nccc13)C2)c1ccccc1` [Example 12, (R)-4-((1-(((1-aminoisoquinolin-5-yl)amino)methyl)-2-(2-phenylpropanoyl)-2-azabicyclo[2.1.1]hexan-4-yl)methoxy)-1-methylpyridin-2(1H)-one]: 10 to 100 nM.
Turning to `Cn1ccc(OCC23CN(C(=O)NCCC4CCC4)C(CNc4cccc5c(N)nccc45)(C2)C3)cc1=O` [Example 81, 1-(((1-aminoisoquinolin-5-yl)amino)methyl)-N-(2-cyclobutylethyl)-4-(((1-methyl-2-oxo-1,2-dihydropyridin-4-yl)oxy)methyl)-2-azabicyclo[2.1.1]hexane-2-carboxamide], the IC50 fell in the range of 10 to 100 nM.
For `Cn1ccc(OCC23CN(C(=O)N4CCCc5ccccc54)C(CNc4cccc5c(N)nccc45)(C2)C3)cc1=O` [Example 36, 4-((1-(((1-aminoisoquinolin-5-yl)amino)methyl)-2-(1,2,3,4-tetrahydroquinoline-1-carbonyl)-2-azabicyclo[2.1.1]hexan-4-yl)methoxy)-1-methylpyridin-2(1H)-one], the IC50 lay within 100 to 300 nM.
Regarding `COc1ccc2c(c1)CCCN2C(=O)N1CC2(COc3ccn(C)c(=O)c3)CC1(CNc1cccc3c(N)nccc13)C2` [Example 39, 4-((1-(((1-aminoisoquinolin-5-yl)amino)methyl)-2-(6-methoxy-1,2,3,4-tetrahydroquinoline-1-carbonyl)-2-azabicyclo[2.1.1]hexan-4-yl)methoxy)-1-methylpyridin-2(1H)-one], the IC50 is 100 to 300 nM.
The same measure for `Cc1cc(OCC23CN(c4nnc(C5CC5)o4)C(CNc4cccc5c(N)nccc45)(C2)C3)cc(=O)n1C` [Example 105, 4-((1-(((1-aminoisoquinolin-5-yl)amino)methyl)-2-(5-cyclopropyl-1,3,4-oxadiazol-2-yl)-2-azabicyclo[2.1.1]hexan-4-yl)methoxy)-1,6-dimethylpyridin-2(1H)-one]: 1 to 10 nM; for `Cn1ccc(OCC23CN(c4ncc(C5CC5)cn4)C(CNc4cccc5c(N)nccc45)(C2)C3)cc1=O` [Example 93, 4-((1-(((1-aminoisoquinolin-5-yl)amino)methyl)-2-(5-cyclopropylpyrimidin-2-yl)-2-azabicyclo[2.1.1]hexan-4-yl)methoxy)-1-methylpyridin-2(1H)-one]: 10 to 100 nM; for `Cn1ccc(OCC23CN(C(=O)Cc4ccc5c(c4)NC(=O)CO5)C(CNc4cccc5c(N)nccc45)(C2)C3)cc1=O` [Example 17, 6-(2-(1-(((1-aminoisoquinolin-5-yl)amino)methyl)-4-(((1-methyl-2-oxo-1,2-dihydropyridin-4-yl)oxy)methyl)-2-azabicyclo[2.1.1]hexan-2-yl)-2-oxoethyl)-2H-benzo[b][1,4]oxazin-3(4H)-one]: 1 to 10 nM.
With `Cc1ncccc1NCC12CC(COc3cc(C)n(C)c(=O)c3)(CN1C(=O)NC1(c3ccccc3)CC1)C2` [Example 56, 4-(((1,6-dimethyl-2-oxo-1,2-dihydropyridin-4-yl)oxy)methyl)-1-(((2-methylpyridin-3-yl)amino)methyl)-N-(1-phenylcyclopropyl)-2-azabicyclo[2.1.1]hexane-2-carboxamide], the IC50 was 40000 to 100000 nM.
Next, `Cc1cc(OCC23CN(C(=O)N(C)[C@H]4CCOC4)C(CNc4cccc5c(N)nccc45)(C2)C3)cc(=O)n1C` [Example 41, (S)-1-(((1-aminoisoquinolin-5-yl)amino)methyl)-4-(((1,6-dimethyl-2-oxo-1,2-dihydropyridin-4-yl)oxy)methyl)-N-methyl-N-(tetrahydrofuran-3-yl)-2-azabicyclo[2.1.1]hexane-2-carboxamide]: 10 to 100 nM.
`CC(=O)NC(C)C(=O)N1CC2(COc3cc(C)n(C)c(=O)c3)CC1(CNc1cccc3c(N)nccc13)C2` (stereo not shown) [Example 29, N-(1-(1-(((1-Aminoisoquinolin-5-yl)amino)methyl)-4-(((1,6-dimethyl-2-oxo-1,2-dihydropyridin-4-yl)oxy)methyl)-2-azabicyclo[2.1.1]hexan-2-yl)-1-oxopropan-2-yl)acetamide]: the IC50 was in the range of 10 to 100 nM.
The same measure for `Cc1cc(OCC23CN(C(=O)N4CCC(c5ccccc5)CC4)C(CNc4cccc5c(N)nccc45)(C2)C3)cc(=O)n1C` [Example 70, 4-((1-(((1-aminoisoquinolin-5-yl)amino)methyl)-2-(4-phenylpiperidine-1-carbonyl)-2-azabicyclo[2.1.1]hexan-4-yl)methoxy)-1,6-dimethylpyridin-2(1H)-one]: 10 to 100 nM; for `Cn1ccc(OCC23CN(C(=O)C[C@H]4CCOC4)C(CNc4cccc5c(N)nccc45)(C2)C3)cc1=O` [Example 10, (R)-4-((1-(((1-aminoisoquinolin-5-yl)amino)methyl)-2-(2-(tetrahydrofuran-3-yl)acetyl)-2-azabicyclo[2.1.1]hexan-4-yl)methoxy)-1-methylpyridin-2(1H)-one]: 10 to 100 nM; for `COCCOCCNC(=O)N1CC2(COc3ccn(C)c(=O)c3)CC1(CNc1cccc3c(N)nccc13)C2` [Example 73, 1-(((1-aminoisoquinolin-5-yl)amino)methyl)-N-(2-(2-methoxyethoxy)ethyl)-4-(((1-methyl-2-oxo-1,2-dihydropyridin-4-yl)oxy)methyl)-2-azabicyclo[2.1.1]hexane-2-carboxamide]: 10 to 100 nM.
With `Cn1ccc(OCC23CC(CNc4cccc5c(N)nccc45)(CN2C(=O)CCC2CCCCC2)C3)cc1=O` [Example 102, 4-((4-(((1-Aminoisoquinolin-5-yl)amino)methyl)-2-(3-cyclohexylpropanoyl)-2-azabicyclo[2.1.1]hexan-1-yl)methoxy)-1-methylpyridin-2(1H)-one], the IC50 lay in the range of 100 to 300 nM.

One may read the IC50 as the concentration at which inhibition is half-maximal.
